By CC50 is commonly meant the concentration that lowers cell viability or growth by half. The Papp is a coefficient for how fast a substance crosses the barrier.

Experimental findings from patent US9346820B2, “HIV-1 protease inhibitors having gem-di-fluoro bicyclic P2-ligands” (priority 2013, dated 2016) are described below.

Series [1] concerns HIV-1ERS104pre. The series is described as follows: p24 Gag production inhibition in PHA-PBMs, wild-type clinical isolate. Format: cell-based. To be noted: Human immunodeficiency virus 1; PHA-PBMs, p24 Gag endpoint; read-out: EC50 HIV-1ERS104pre (X4). As to the method: (§1) All primary HIV-1 strains were passaged once or twice in 3-day-old phytohemagglutinin activated peripheral blood mononuclear cells (PHA-PBM), and the culture supernatants were stored at −80° C. until use.
(§2) The susceptibility of HIV-1LAI to various drugs was determined as previously described with minor modifications. Briefly, MT-2 cells (10^4/ml) were exposed to 100 50% tissue culture infectious doses (TCID50) of HIV-1LAI in the presence or absence of various concentrations of drugs in 96-well microculture plates and were incubated at 37° C. for 7 days. After 100 μl of the medium was removed from each well, 3-(4,5-dimetylthiazol-2-yl)-2,5-diphenyltetrazolium bromide (MTT) solution (10 μl, 7.5 mg/ml in phosphate-buffered saline) was added to each well in the plate, followed by incubation at 37° C. for 2 h. […] All assays were performed in duplicate or triplicate. […] To determine the sensitivity of primary HIV-1 isolates to drugs, phytohemagglutinin-stimulated peripheral blood mononuclear cells (PHA-PBMC) (10^6/ml) were exposed to 50 TCID50 of each primary HIV-1 isolate and cultured in the presence or absence of various concentrations of drugs in 10-fold serial dilutions in 96-well microculture plates. In determining the drug susceptibility of certain laboratory HIV-1 strains, MT-4 cells were employed as target cells as previously described with minor modifications. In brief, MT-4 cells (10^5/ml) were exposed to 100 TCID50 of drug-resistant HIV-1 strains in the presence or absence of various concentrations of drugs and were incubated at 37° C. On day 7 of culture, the supernatants were harvested and the amounts of p24 Gag protein were determined by using a fully automated chemiluminescent enzyme immunoassay system (Lumipulse F: Fujirebio Inc., Tokyo). […] All assays were performed in duplicate or triplicate. PHA-PBMs were derived from a single donor in each independent experiment. Thus, for obtaining the data, three different donors were recruited.

In series [2] the test system is HIV-1MDR/G. The experiment in a line: microbe, parasite or virus in culture. Particulars: Human immunodeficiency virus 1, read-out: EC50 HIV-1MDR/G (X4). Format: cell-based. The procedure:
as §1, §2

The subject of series [3] is HIV-1MDR/TM. The experiment in a line: microbe, parasite or virus in culture. Format: cell-based. To be noted: Human immunodeficiency virus 1, read-out: EC50 HIV-1MDR/TM (X4). The procedure: as §1, §2
The subject of series [4] is HIV-1MDR/MM. The series is described as follows: microbe, parasite or virus in culture. Format: cell-based. To be noted: Human immunodeficiency virus 1, read-out: EC50 HIV-1MDR/MM (R5). As to the method: as §1, §2
For series [5], the system named is HIV-1MDR/JSL. The experiment in a line: microbe, parasite or virus in culture. Type of series: cell-based. To be noted: Human immunodeficiency virus 1, read-out: EC50 HIV-1MDR/JSL (R5). As to the method: as §1, §2
In series [6] the test system is HIV-1MDR/C. The experiment in a line: microbe, parasite or virus in culture. Format: cell-based. To be noted: Human immunodeficiency virus 1, read-out: EC50 HIV-1MDR/C (X4). The procedure:
as §1, §2

In series [7] the test system is HIV-1MDR/B. The experiment in a line: microbe, parasite or virus in culture. Format: cell-based. To be noted: Human immunodeficiency virus 1, read-out: EC50 HIV-1MDR/B (X4). The procedure:
as §1, §2

For series [8], the system named is HIV-1GRL-04810^RP18, and HIV-1GRL-05010^RP10. The experiment in a line: p24 assay, the two GRL-selected variants taken together. Format: cell-based. Particulars: Human immunodeficiency virus 1, read-out: EC50 values against HIV-1GRL-04810^RP18 and HIV-1GRL-05010^RP10. The procedure: as §2
In series [9] the test system is HIV-1GRL04810^RP18. The series is described as follows: microbe, parasite or virus in culture. Type of series: cell-based. To be noted: Human immunodeficiency virus 1, MT4, read-out: EC50 HIV-1GRL04810^RP18. The procedure: as §2
(§3) The amounts of p24 were measured every two days for up to 7 days.

Series [10] deals with HIV-1GRL05010^RP10. The experiment in a line: microbe, parasite or virus in culture. Type of series: cell-based. Particulars: Human immunodeficiency virus 1, MT4, read-out: EC50 HIV-1GRL05010^RP10. The procedure:
as §2, §3

Series [11] deals with HIV-1LPV^R5μM. The series is described as follows: microbe, parasite or virus in culture. To be noted: Human immunodeficiency virus 1, MT4, read-out: EC50 HIV-1LPV^R5μM. Format: cell-based. As to the method:
as §2

Series [12] concerns HIV-1SQV^R5μM. The experiment in a line: microbe, parasite or virus in culture. Particulars: Human immunodeficiency virus 1, MT4, read-out: EC50 HIV-1SQV^R5μM. Format: cell-based. As to the method:
as §2

Series [13] concerns HIV-1APV^R5μM. The series is described as follows: microbe, parasite or virus in culture. Type of series: cell-based. To be noted: Human immunodeficiency virus 1, MT4, read-out: EC50 HIV-1APV^R5μM. As to the method: as §2
The subject of series [14] is HIV-1ATV^R5μM. The series is described as follows: microbe, parasite or virus in culture. Type of series: cell-based. To be noted: Human immunodeficiency virus 1, MT4, read-out: EC50 HIV-1ATV^R5μM. The procedure:
as §2

Series [15] can be described thus: Cytotoxicity (CC50), MTT assay. Type of series: cell-based. To be noted: human; 50% cytotoxicity; read-out: CC50. As to the method: The susceptibility of HIV-1LAI to various drugs was determined as previously described with minor modifications. Briefly, MT-2 cells (10^4/ml) were exposed to 100 50% tissue culture infectious doses (TCID50) of HIV-1LAI in the presence or absence of various concentrations of drugs in 96-well microculture plates and were incubated at 37° C. for 7 days. After 100 μl of the medium was removed from each well, 3-(4,5-dimetylthiazol-2-yl)-2,5-diphenyltetrazolium bromide (MTT) solution (10 μl, 7.5 mg/ml in phosphate-buffered saline) was added to each well in the plate, followed by incubation at 37° C. for 2 h. […] All assays were performed in duplicate or triplicate. […] In determining the drug susceptibility of certain laboratory HIV-1 strains, MT-4 cells were employed as target cells as previously described with minor modifications. In brief, MT-4 cells (10^5/ml) were exposed to 100 TCID50 of drug-resistant HIV-1 strains in the presence or absence of various concentrations of drugs and were incubated at 37° C. On day 7 of culture, the supernatants were harvested and the amounts of p24 Gag protein were determined by using a fully automated chemiluminescent enzyme immunoassay system (Lumipulse F: Fujirebio Inc., Tokyo). […] All assays were performed in duplicate or triplicate. PHA-PBMs were derived from a single donor in each independent experiment. Thus, for obtaining the data, three different donors were recruited.
For orientation: Tetrazolium assays rely on reduction of a dye to a coloured formazan, in cell work by metabolically active cells.

For series [16], the system named is HIV-1NL4-3. The experiment in a line: p24 Gag production inhibition in MT-4 cells, wild-type laboratory strain. To be noted: Human immunodeficiency virus 1, MT4; MT-4 cells, p24 Gag endpoint; read-out: EC50 HIV-1NL4-3. Type of series: cell-based. The procedure:
as §2

Series [17] concerns HIV-1LAI. The experiment in a line: Antiviral activity of brain-side medium from the BBB assay, MTT assay in MT-2 cells. Format: cell-based. Particulars: HIV-1LAI. The procedure: The “brain-side” of the medium containing a compound collected in the BBB in vitro assay, was subjected to antiviral assays. Two HIV-1 isolates were employed, HIV-1LAI (Panel A) and HIV-1ERS104pre (Panel B). […] Dilution ranges were between 10-fold and 10,000-fold, and the percentage of viral inhibition was used as an endpoint. […] Assays were conducted in duplicate and error bars show standard deviations.
The assay was carried out using 10, 100, 1000 and 10000 times-diluted brain-side stocks of compounds.

A short description of series [18]: Apparent BBB permeability coefficient, in vitro BBB model (BBB Kit). Particulars: rat and monkey. The procedure: (§4) The BBB Kit™ was kept at −80° C. until thawing on day 0 of the experiments. Nutritional medium was added to both brain and blood sides of the wells. This solution consists of DMEM F-12 medium with FCS 10% v/v, heparin 100 μg/ml, basic fibroblast growth factor (bFGF) 1.5 ng/ml, insulin 5 μg/ml, transferrin 5 μg/ml, sodium selenite 5 ng/ml, hydrocortisone 500 nM and gentamycin 50 μg/ml. Fresh medium was added 3 hours after thawing following the manufacturer's instructions, and 24 hours later. The plates were incubated at 37° C. until day 4 of the experiment when the condition of astrocytes was checked under a light microscope. Following this, the integrity of the collagen-coated membrane was verified by the measurement of the transendothelial electrical resistance (TEER) using an ohmmeter provided by the manufacturer. […] Detailed information regarding the components of the BBB Kit as well as its mechanisms can be seen by accessing the manufacturer's website http://www.pharmacocell.co.jp/en/bbb/index_e.html.
(§5) Standard curves were generated for each compound on a light spectrophotometer as previously described. 100 μM of each compound was added to the luminal (blood side) of the wells, incubated at 37° C. for 30 minutes and then, the amount of drug that crossed the in vitro BBB was collected and measured under a light spectrophotometer at 230 nanometer absorbances.
(§6) Papp was calculated using the following mathematical formula: […]
(§7) This model (BBB Kit™) is thought to represent an in vitro BBB model for drug transport assays, permitting an adequate cross-talk of the cell lines involved and provide a way to test an apparent passage of small molecules across the BBB as previously described by Nakagawa et al. (41). […] The concentrations of each compound that permeated into the abluminal interface (termed “brain side”) were determined using a spectrophotometer, 30 min after the addition of each drug to the wells.
(§8) The mathematical formula used for the calculation of Papp is described in Materials and Methods.

Series [19] concerns triple culture of rat-derived astrocytes, pericytes and monkey-derived endothelial cells. The description is as above. To be noted: 100 μM on luminal (blood) side, 30 min, brain side measured at 230 nm. The procedure: as §4, §5, §6, §7, §8

For the compound `CC(C)CN(C[C@@H](O)[C@H](Cc1ccccc1)NC(=O)O[C@H]1CCOC1)S(=O)(=O)c1ccc(N)cc1` [APV, Amprenavir], the EC50 was determined as 29.5 nM in [1]; 310 nM in [2]; 328 nM in series [3]; 270 nM in series [4]; 630 nM in [5]; 210 nM in series [6]. Also, the EC50 in [7] is 490 nM; in series [8] it was more than 1000 nM; in series [9], more than 1000 nM; in [10] it was more than 1000 nM; in series [11], 33 nM; in series [12], 435 nM. Also, the EC50 in [13] is more than 1000 nM; in series [14], more than 1000 nM; in series [16], 81 nM. The CC50 at 7 days in [15] was more than 100 µM.
For `CC(C)(C)NC(=O)[C@@H]1CN(Cc2cccnc2)CCN1C[C@@H](O)C[C@@H](Cc1ccccc1)C(=O)N[C@H]1c2ccccc2C[C@H]1O` [IDV, Indinavir], the “suppression levels of brain-side preparations compared (FIG. 5A)” value in series [17] was “less than those of GRL-04810^brain and GRL-05010^brain”.
With `Cc1cccc(C)c1OCC(=O)N[C@@H](Cc1ccccc1)[C@@H](O)C[C@H](Cc1ccccc1)NC(=O)[C@H](C(C)C)N1CCCNC1=O` [LPV, Lopinavir], the EC50 was 33 nM in series [1], more than 1000 nM in series [5], more than 1000 nM in series [11] and 35 nM in [16]. For the same compound, in series [15], the CC50 at 7 days was determined as 26.8 ± 0.9 µM.
In the case of `Cn1c(=O)c2c(ncn2C)n(C)c1=O` [caffeine], the Papp at 30 min, 100 μM in series [18] is 100 ×10⁻⁶ cm/s. In addition, in series [19], the “Final abluminal tracer concentration” value turned out to be 6.60 µM.
